# Activity calls are given as the source filed them.
# Assays:
# [1] = molecular target: DNA dC->dU-editing enzyme APOBEC-3A (Homo sapiens, UniProt P31941); assay: Dose Response confirmation of small molecule APOBEC3A DNA Deaminase Inhibitors via a fluorescence-based single-stranded DNA deaminase assay. [Related pubchem assays (depositor defined):AID493011, AID493024]; assay type: functional
# [2] = molecular target: DNA dC->dU-editing enzyme APOBEC-3G (Homo sapiens, UniProt Q9HC16); assay type: functional;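 note: Dose-response counterscreen measuring inhibition of APOBEC3G DNA deaminase activity, run while confirming APOBEC3A inhibitors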
# Genome polyprotein = Genome polyprotein (dengue virus type 2, UniProt P29990); assay: flavivirus cap methylation enzyme inhibition – biochemical, confirmation dose response, primary screen (AID 588689); assay type: functional
# [3] = molecular target: Peroxisome proliferator-activated receptor gamma/Nuclear receptor coactivator 1 (Homo sapiens, UniProt P37231); assay type: functional;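 note: agonist potency as compounds enhance coactivator SRC-1 recruitment to PPARgamma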
# [4] = molecular target: Peroxisome proliferator-activated receptor gamma/Nuclear receptor coactivator 2 (Homo sapiens, UniProt P37231); assay type: functional;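 note: agonist potency for raising coactivator recruitment to the receptor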
# [5] = molecular target: Peroxisome proliferator-activated receptor gamma/Nuclear receptor coactivator 3 (Homo sapiens, UniProt P37231); assay type: functional;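 note: agonist potency for raising coactivator recruitment to the receptor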
# Cytochrome P450 2C9 = Cytochrome P450 2C9 (Homo sapiens, UniProt P11712)
# [6] = molecular target: T1, Rac GTPase-activating protein 1 (Homo sapiens, UniProt Q9H0H5); assay: blockers of MgcRacGAP-driven Rac1 GTP hydrolysis – biochemical, ADP Hunter fluorescence, primary and confirmatory, confirmation (AID 624330); assay type: functional
# T1 sequence (Q9H0H5 whole entry): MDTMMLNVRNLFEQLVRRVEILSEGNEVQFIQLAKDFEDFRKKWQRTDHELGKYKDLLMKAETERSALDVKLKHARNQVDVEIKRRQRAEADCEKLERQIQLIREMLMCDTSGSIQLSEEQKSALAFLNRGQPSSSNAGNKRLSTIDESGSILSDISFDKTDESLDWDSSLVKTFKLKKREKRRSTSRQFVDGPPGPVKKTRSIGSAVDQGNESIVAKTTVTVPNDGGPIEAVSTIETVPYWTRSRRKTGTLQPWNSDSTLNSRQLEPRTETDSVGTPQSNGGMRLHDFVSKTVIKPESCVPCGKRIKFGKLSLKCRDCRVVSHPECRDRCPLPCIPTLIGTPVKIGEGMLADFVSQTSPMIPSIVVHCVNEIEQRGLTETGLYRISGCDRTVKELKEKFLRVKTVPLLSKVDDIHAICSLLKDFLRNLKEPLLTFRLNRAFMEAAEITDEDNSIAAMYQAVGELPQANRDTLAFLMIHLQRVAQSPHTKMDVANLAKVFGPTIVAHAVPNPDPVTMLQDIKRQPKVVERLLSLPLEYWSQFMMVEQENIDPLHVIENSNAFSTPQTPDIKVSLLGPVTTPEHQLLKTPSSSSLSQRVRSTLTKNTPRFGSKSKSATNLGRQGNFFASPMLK
# [7] = molecular target: T2, Short transient receptor potential channel 4 (Mus musculus, UniProt Q9QUQ5); assay: block of DAMGO-driven TRPC4 calcium entry – cell-based, HEK293 TRPC4/mu-opioid, Fluo-4 calcium, dose response (AID 434942); assay type: functional;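 note: potency of inhibitors blocking the TRPC4 calcium response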
# T2 sequence (Q9QUQ5 whole entry): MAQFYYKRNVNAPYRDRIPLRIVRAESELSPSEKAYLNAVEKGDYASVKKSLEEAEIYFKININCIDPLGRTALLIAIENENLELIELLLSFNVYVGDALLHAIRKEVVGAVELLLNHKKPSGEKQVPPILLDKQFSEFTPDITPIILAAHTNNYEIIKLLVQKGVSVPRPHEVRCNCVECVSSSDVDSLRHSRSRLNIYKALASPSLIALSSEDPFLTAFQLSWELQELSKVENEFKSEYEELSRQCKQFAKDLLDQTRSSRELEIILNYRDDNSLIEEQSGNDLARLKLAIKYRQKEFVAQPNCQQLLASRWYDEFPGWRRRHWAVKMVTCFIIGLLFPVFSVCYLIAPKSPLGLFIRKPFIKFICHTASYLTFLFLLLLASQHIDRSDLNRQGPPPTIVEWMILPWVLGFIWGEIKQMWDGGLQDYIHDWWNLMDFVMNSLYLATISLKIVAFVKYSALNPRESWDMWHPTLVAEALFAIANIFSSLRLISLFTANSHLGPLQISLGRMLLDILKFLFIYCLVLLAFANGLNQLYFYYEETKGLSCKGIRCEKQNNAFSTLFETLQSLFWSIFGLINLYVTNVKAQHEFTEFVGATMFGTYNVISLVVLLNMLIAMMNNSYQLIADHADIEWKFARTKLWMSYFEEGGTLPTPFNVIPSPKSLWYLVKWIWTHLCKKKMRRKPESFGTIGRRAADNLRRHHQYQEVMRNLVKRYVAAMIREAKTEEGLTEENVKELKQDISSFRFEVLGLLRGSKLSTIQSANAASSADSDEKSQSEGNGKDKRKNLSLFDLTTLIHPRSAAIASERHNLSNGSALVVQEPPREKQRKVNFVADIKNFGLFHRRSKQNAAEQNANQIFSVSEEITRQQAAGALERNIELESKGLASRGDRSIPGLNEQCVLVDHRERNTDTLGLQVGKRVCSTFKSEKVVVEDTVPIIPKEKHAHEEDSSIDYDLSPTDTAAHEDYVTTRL
# Estrogen receptor = molecular target: T3, Estrogen receptor (Homo sapiens, UniProt P03372);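 note: potency for inhibiting coactivator peptide recruitment to the receptor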
# T3 sequence (P03372 whole entry): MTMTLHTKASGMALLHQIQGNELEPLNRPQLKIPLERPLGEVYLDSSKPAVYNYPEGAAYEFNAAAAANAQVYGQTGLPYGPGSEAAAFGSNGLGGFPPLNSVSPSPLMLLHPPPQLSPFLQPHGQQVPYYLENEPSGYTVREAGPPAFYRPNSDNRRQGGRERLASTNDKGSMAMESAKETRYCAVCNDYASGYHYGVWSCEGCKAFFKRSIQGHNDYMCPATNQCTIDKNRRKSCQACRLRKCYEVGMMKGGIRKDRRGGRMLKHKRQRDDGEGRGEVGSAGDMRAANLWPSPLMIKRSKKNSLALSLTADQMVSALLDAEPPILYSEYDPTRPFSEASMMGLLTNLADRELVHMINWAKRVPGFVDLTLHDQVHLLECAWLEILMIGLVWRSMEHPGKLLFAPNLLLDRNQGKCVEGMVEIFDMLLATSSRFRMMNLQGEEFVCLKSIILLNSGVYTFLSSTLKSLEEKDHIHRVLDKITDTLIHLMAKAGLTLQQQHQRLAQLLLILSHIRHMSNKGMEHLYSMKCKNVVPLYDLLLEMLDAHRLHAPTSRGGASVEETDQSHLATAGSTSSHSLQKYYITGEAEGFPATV
# SUMO-activating enzyme = SUMO-activating enzyme (Homo sapiens, UniProt Q9UBT2); assay: blockers of UBC9-mediated SUMO conjugation – biochemical, AlphaScreen, SUMOylation inhibitor project, confirmation (AID 2018); assay type: functional
# [8] = reduction of Shn3 3'UTR-driven luciferase in osteoblasts – cell-based, Clone20 osteoblasts, firefly luciferase, cherry-picked, dose response (AID 624132); assay type: functional;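 note: firefly luciferase luminescence from reporter carrying the Shn3 3'UTR in osteoblasts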
# [9] = non-specific 3'UTR reporter inhibition in Clone20-Shn3RL – cell-based, Renilla luciferase, cherry-picked, counter-screen for Shn3 inhibitor project, dose response (AID 624133); assay type: functional
# [10] = molecular target: T4, Heat shock factor protein 1 (Mus musculus, UniProt P38532); assay: enhancement of HSF1-driven luciferase signal – cell-based, NIH3T3, luminescence, dose retest, confirmation (AID 435004); assay type: functional;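 note: stress induced by proteasome inhibitor MG132 added 30 min after compound; luciferase reporter driven by HSF1 response element in NIH3T3 cells; actives raise luminescence as potentiators of the MG132 stress response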
# T4 sequence (P38532 whole entry): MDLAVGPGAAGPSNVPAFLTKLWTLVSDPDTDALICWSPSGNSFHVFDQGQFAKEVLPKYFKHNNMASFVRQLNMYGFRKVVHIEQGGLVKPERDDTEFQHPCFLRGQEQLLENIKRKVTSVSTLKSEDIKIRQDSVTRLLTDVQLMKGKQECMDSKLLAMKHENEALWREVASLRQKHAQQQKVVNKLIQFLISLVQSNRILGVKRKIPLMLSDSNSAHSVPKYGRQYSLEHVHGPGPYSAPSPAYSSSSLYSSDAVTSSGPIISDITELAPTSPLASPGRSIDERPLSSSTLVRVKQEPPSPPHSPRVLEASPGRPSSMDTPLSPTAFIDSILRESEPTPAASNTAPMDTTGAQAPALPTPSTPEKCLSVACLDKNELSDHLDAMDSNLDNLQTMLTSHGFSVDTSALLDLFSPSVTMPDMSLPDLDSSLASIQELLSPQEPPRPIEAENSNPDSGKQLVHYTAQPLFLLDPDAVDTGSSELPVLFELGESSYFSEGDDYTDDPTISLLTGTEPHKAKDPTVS
# [11] = loss of viability in HepG2 cells – cell-based, CellTiter-Glo, cherry-picked, cytotoxicity control for Shn3 inhibitor project, dose response (AID 624134); assay type: functional
# [12] = reduced cellular PGC1a acetyl-lysine signal – cell-based, cherry-picked samples, dose response (AID 720514); assay type: functional;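 note: potency may reflect raised or lowered acetylation signal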
# [13] = molecular target: Luciferin 4-monooxygenase (Photinus pyralis, UniProt P08659); assay: inhibition of purified Photinus pyralis luciferase – biochemical, luminescence, dose response (AID 1891)
# HEK293 = assay: EBV LMP1 TES2 canonical NF-kB signalling blockers – cell-based, HEK293, luciferase, cherry-pick, dose response (AID 588343); assay type: functional; conditions: Homo sapiens
# [14] = Luminescence Cell-Based Dose Confirmation HTS to Identify Inhibitors of Platelet Dense Granule Release. [Related pubchem assays: 1663 (Primary HTS), 1678 (Summary of Project)]; assay type: functional
# Large T antigen = Large T antigen (Simian virus 40, UniProt P03070); assay type: functional, Betapolyomavirus macacae;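 note: Confirmatory-stage PubChem screen for compounds that inhibit SV40 T antigen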
# Protein Tat = molecular target: T5, Protein Tat (Human immunodeficiency virus type 1 group M subtype B (isolate HXB2)(HIV-1), UniProt P04608); assay type: functional;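 note: tat binding to TAR RNA read out by fluorescence polarization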
# T5 sequence (P04608 whole entry): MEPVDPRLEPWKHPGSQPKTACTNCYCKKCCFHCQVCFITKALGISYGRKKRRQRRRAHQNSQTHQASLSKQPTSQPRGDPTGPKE
# [15] = molecular target: T4, Heat shock factor protein 1; assay: decrease of HSF1-responsive luciferase luminescence – cell-based, NIH3T3, dose retest, confirmation (AID 2382); assay type: functional;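 note: NIH3T3 fibroblasts with HSF1-driven luciferase reporter stressed by proteasome inhibitor MG132; luminescence from HSF1-driven luciferase expression after 8 hours of MG132 stress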
# DNA dC->dU-editing enzyme APOBEC-3G, sequence (Q9HC16 whole entry): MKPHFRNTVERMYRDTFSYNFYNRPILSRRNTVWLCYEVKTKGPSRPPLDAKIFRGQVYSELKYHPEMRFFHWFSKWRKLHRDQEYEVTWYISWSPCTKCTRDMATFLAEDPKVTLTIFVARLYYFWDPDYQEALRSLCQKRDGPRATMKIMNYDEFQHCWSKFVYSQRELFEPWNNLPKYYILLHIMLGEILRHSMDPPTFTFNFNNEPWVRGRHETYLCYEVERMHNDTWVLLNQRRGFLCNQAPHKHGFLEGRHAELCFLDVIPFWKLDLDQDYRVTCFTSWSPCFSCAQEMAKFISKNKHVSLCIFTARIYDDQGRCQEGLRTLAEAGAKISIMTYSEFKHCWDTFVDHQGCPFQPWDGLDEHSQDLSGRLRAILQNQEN
# Peroxisome proliferator-activated receptor gamma/Nuclear receptor coactivator 1, sequence (P37231 whole entry): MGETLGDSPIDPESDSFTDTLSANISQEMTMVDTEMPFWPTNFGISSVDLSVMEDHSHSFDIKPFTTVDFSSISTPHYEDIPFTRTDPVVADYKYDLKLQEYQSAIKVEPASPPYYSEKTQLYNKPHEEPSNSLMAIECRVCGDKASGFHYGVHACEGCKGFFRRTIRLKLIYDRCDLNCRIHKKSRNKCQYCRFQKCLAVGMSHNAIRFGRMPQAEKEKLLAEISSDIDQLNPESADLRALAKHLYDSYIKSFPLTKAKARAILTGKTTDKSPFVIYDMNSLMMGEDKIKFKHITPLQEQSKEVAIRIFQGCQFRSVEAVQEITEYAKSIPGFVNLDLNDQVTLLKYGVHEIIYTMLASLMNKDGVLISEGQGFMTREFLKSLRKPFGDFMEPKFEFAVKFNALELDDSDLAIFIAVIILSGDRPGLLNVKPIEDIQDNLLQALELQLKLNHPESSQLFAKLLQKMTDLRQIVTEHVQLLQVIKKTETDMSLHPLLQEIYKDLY
# Peroxisome proliferator-activated receptor gamma/Nuclear receptor coactivator 1, sequence (Q15788 whole entry, further chain): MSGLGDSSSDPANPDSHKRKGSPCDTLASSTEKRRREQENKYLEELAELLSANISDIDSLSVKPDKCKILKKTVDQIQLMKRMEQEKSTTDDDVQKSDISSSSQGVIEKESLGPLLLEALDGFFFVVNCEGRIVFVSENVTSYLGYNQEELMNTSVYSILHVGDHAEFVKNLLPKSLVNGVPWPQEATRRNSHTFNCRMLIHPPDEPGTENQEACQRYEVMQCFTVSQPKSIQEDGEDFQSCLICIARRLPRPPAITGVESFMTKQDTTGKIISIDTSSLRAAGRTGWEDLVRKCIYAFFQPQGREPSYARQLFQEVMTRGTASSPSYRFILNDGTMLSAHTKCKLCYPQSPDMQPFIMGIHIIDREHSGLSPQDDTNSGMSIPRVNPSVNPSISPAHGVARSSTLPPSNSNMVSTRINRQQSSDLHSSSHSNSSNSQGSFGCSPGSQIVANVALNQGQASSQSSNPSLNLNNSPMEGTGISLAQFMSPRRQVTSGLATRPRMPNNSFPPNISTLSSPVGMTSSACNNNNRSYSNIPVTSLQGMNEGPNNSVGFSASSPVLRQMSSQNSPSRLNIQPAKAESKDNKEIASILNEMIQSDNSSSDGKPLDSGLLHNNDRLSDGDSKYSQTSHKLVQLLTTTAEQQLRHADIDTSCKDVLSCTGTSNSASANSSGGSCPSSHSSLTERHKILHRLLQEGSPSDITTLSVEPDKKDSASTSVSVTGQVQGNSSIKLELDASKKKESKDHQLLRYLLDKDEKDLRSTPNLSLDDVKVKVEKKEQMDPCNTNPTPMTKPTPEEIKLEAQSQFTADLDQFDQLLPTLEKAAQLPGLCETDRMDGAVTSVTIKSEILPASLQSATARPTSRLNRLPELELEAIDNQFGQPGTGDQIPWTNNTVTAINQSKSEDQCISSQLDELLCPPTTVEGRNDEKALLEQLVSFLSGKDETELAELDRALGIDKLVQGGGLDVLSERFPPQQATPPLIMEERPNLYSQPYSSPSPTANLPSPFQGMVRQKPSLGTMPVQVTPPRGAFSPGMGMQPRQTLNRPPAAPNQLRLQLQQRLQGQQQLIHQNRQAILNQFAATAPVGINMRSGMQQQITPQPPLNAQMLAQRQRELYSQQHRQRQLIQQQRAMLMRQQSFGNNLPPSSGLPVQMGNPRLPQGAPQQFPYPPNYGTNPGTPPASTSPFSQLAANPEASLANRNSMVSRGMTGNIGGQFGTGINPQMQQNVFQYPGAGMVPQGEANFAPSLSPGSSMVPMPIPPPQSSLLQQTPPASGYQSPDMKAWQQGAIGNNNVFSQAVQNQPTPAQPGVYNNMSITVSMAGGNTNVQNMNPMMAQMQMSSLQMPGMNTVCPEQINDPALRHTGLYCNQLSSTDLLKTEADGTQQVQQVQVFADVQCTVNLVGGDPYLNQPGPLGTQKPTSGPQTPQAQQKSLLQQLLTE
# Peroxisome proliferator-activated receptor gamma/Nuclear receptor coactivator 2, sequence (P37231 whole entry): as the sequence (P37231 whole entry) above
# Peroxisome proliferator-activated receptor gamma/Nuclear receptor coactivator 2, sequence (Q15596 whole entry, further chain): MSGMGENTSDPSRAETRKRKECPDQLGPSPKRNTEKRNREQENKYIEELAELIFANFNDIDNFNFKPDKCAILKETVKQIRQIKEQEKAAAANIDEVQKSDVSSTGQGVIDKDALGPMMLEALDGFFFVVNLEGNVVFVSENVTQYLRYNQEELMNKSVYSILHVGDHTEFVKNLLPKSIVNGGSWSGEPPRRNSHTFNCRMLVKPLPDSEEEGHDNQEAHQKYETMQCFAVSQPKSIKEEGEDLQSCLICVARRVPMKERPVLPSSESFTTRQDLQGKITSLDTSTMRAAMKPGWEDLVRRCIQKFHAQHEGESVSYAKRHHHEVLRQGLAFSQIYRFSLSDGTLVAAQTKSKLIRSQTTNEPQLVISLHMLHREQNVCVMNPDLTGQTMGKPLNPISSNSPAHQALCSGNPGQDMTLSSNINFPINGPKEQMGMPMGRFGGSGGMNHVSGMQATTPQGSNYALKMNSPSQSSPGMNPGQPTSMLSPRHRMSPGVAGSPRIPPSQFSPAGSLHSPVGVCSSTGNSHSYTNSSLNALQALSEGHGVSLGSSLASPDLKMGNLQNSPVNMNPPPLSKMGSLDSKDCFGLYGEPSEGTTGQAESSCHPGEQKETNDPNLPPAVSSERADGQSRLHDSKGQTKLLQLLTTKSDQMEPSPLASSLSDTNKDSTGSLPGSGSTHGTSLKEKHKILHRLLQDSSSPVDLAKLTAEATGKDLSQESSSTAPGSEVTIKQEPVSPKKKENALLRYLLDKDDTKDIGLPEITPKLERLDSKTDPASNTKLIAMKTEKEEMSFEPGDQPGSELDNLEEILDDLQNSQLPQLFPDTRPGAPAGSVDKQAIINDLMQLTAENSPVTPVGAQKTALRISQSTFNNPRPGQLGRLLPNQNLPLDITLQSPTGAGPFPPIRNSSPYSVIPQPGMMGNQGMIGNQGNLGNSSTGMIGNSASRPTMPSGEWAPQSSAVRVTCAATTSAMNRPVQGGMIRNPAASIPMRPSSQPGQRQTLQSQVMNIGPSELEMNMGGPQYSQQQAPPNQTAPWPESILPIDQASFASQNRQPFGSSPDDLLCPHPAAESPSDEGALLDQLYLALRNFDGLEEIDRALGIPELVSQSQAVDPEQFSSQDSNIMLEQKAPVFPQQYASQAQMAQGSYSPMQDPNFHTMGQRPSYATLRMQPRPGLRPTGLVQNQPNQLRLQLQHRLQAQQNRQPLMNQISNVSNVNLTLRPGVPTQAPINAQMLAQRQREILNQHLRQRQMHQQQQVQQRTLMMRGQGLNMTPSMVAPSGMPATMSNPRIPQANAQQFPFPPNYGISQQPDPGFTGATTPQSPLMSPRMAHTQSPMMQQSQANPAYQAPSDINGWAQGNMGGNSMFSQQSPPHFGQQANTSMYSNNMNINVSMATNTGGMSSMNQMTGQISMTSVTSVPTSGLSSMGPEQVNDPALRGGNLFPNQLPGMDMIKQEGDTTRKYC
# DNA dC->dU-editing enzyme APOBEC-3A, sequence (P31941 whole entry): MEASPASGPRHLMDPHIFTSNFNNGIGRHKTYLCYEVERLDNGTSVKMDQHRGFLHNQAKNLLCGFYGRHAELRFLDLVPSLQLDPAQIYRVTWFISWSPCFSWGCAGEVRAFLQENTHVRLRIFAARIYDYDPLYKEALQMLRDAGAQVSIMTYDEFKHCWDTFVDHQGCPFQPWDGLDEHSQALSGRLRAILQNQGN
# Luciferin 4-monooxygenase, sequence (P08659 whole entry): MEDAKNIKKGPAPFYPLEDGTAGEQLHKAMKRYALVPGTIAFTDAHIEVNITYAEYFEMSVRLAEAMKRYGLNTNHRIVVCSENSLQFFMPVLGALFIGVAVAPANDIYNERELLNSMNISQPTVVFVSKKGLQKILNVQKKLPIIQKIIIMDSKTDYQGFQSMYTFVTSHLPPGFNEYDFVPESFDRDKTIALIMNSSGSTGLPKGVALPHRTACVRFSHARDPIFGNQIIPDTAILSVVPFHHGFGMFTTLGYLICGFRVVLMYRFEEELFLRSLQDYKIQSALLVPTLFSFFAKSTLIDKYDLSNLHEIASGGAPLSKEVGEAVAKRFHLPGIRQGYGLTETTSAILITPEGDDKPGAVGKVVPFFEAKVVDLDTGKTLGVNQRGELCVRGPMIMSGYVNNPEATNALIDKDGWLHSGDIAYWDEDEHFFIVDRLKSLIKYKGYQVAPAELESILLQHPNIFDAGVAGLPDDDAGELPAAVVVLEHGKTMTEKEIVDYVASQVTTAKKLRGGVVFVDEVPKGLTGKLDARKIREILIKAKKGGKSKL
compound,measurement,setting,value
CCN1C(=NCC2CC2)N[C@@H](c2ccccc2)C(C(=O)OC)=C1C,IC50,[1],3.37 µM (active)
same,IC50,[2],8.56 µM (active)
Cc1ccc([C@H]2C(C(=O)O)=CC[C@@H](c3ccc(Cl)c(Cl)c3)N2S(=O)(=O)c2ccc(C)cc2)cc1,IC50,Genome polyprotein,38.8 µM (active)
Cc1nn(-c2ccc(Cl)cc2)c2sc(C(=O)c3c(N)n(C)c(=O)n(C)c3=O)cc12,EC50,[3],18.4 µM (not active)
same,EC50,[4],18 µM (not active)
same,EC50,[5],33.3 µM (not active)
same,AC50,Cytochrome P450 2C9,25.1 µM (inconclusive)
O=C(O)CCn1cc(C=C2C(=O)NC(=O)NC2=O)c(-c2ccc(Br)cc2)n1,IC50,Genome polyprotein,7.97 µM (active)
same,IC50,[6],95.3 µM (active)
Cc1ccc(C2CN(C)CC2C(=O)c2ccc(F)cc2)cc1 (stereo not given),EC50,[7],13.3 µM (active)
COc1ccccc1C(=O)Nc1nc(-c2cccs2)c(NC(C)=O)s1,IC50,Estrogen receptor,19 µM (active)
NC(=O)C[N+]1(CC#CC(O)(c2ccccc2)c2ccccc2)CCCC1,IC50,[1],2.74 µM (active)
same,IC50,[2],2.59 µM (active)
O=C(COC(=O)c1cc(NS(=O)(=O)c2cccs2)ccc1O)Nc1cc(Cl)ccc1Cl,IC50,SUMO-activating enzyme,28.8 µM (active)
COC(=O)C1=C(C)N(CC2CC2)C(NCc2cc(OC)c(OC)c(OC)c2)=N[C@H]1c1ccccc1,IC50,[1],8.83 µM (active)
same,IC50,[2],14 µM (active)
COCc1cc(C)nc(Sc2nc3c(c(=O)n(C)c(=O)n3C)n2C)c1C#N,IC50,[1],7.99 µM (active)
same,IC50,[2],8.47 µM (active)
N#Cc1c(N)nc(SCC(=O)NC2CCCCC2)c(C#N)c1-c1ccc(Cl)cc1,EC50,[3],34.6 µM (not active)
same,EC50,[4],21.9 µM (not active)
same,EC50,[5],37.1 µM (not active)
CCOC(=O)CCC(=O)Nc1ccccc1C(N)=O,IC50,Estrogen receptor,> 50 µM (not active)
Cc1cc(C)c(NC(=O)CSc2nc3ccc(NC(=O)CSc4nnnn4Cc4ccccc4)cc3s2)c(C)c1,IC50,Estrogen receptor,> 50 µM (not active)
CSc1nsc(NC(=O)Cc2ccccc2)n1,EC50,[7],5.31 µM (active)
Fc1ccc(-c2nnc(-n3nnc4ccccc43)c3ccccc23)cc1,IC50,Estrogen receptor,26.3 µM (active)
Fc1ccc(/C=C2\CCCC3=C2Nc2ncnn2C3c2ccc(F)cc2)cc1 (stereo not given),AC50,[8],8.47 µM (active)
same,AC50,[9],11.3 µM (active)
same,EC50,[10],20.7 µM (active)
same,AC50,[11],37.9 µM (active)
same,AC50,[12],9.46 µM (active)
COc1ccc(NC(=O)c2ccccn2)cc1,EC50,[13],9.53 µM (active)
same,AC50,HEK293,3.65 µM (active)
same,EC50,[14],10.5 µM (active)
Cc1ccc(CNC(=O)COc2ccc(C(=O)c3ccc(F)cc3)cc2)cc1,EC50,[3],> 79.4 µM (not active)
same,EC50,[4],> 79.4 µM (not active)
same,EC50,[5],> 79.4 µM (not active)
CCn1c2ccccc2c2cc(NC(=O)c3ccccc3-c3ccccc3C(=O)O)ccc21,IC50,Genome polyprotein,42.9 µM (active)
CCC(C)(C)n1nnnc1C(c1ccc2ncccc2c1)N1CCN(c2ccc(O)cc2)CC1 (stereo not given),IC50,Large T antigen,34.6 µM (active)
same,IC50,Protein Tat,> 100 µM (active)
O=C(O)C1=CC[C@@H](c2ccc(Cl)cc2)N(S(=O)(=O)c2ccc(Cl)cc2)[C@H]1c1cccc(Cl)c1,IC50,Genome polyprotein,37.4 µM (active)
COC(=O)c1c(NC(=O)CSc2nc[nH]n2)sc(C)c1C,EC50,[7],4.73 µM (active)
COc1ccc(-c2c(C#N)c(C)nc3c2C(=O)c2ccccc2-3)cc1,EC50,[3],55.3 µM (not active)
same,EC50,[4],32.6 µM (not active)
same,EC50,[5],48.3 µM (not active)
N#Cc1c(NC(=O)CSc2ncccn2)oc(-c2ccccc2)c1-c1ccccc1,IC50,Estrogen receptor,9.58 µM (active)
same,EC50,[15],9.25 µM (active)
COC(=O)c1ccc2ccn(CC(=O)NC(C)C)c2c1,IC50,[1],3.92 µM (active)
same,IC50,[2],4.95 µM (active)
CCOC(=O)/C=C1\SCC(=O)N1CC(=O)NC(C)c1ccc(F)cc1 (stereo not given),IC50,Protein Tat,> 100 µM (active)
CSc1ccc(C(c2c(C(=O)O)[nH]c3ccccc23)c2c(C(=O)O)[nH]c3ccccc23)cc1,IC50,Genome polyprotein,48.8 µM (active)
